Experimental data as given in article PMC10082216 (Nature Communications, 2023).
Where two headings read alike, the source gives them in different places.

Experiment: TD-6450 phase I clinical study (SAD/MAD): pharmacokinetics
Format: in vivo, human
Details: male, human
Description: Primary and secondary outcomes were pre-defined as follows: Safety and tolerability as a primary outcome, pharmacokinetics as a secondary outcome. Safety and tolerability were evaluated using standard measures, including adverse event (AE) monitoring, clinical laboratory tests (hematology, serum chemistry, coagulation, and urinalysis), vital signs, physical examinations, and 12-lead electrocardiograms (ECGs). […]
This study was conducted in two parts, Part A (SAD) and Part B (MAD). For the Part A, the age of enrolled subjects ranged from 20 to 60 years, with a mean age range of 32.1 to 46.2 years. Most subjects were male (73 total subjects) and most were white (55 subjects) or black (22 subjects). For Part B of the study, ages ranged from 23 to 60 years with a similar mean age across treatment groups. Most subjects were male (25 total subjects) and all were either white (18 subjects) or black (12 subjects). For each part of the study, the mean body mass index (BMI) and creatinine clearance were similar across treatment groups. […] Part A: Healthy subjects were sequentially enrolled and randomly assigned to each dose cohort (up to 10 dose-ascending cohorts were planned, including a fed arm in the food effect cohort) to receive either a single dose of TD-6450 or placebo. For each dose cohort, 8 subjects were randomized in a 3:1 ratio (6 subjects received TD-6450 and 2 subjects received placebo). The starting dose of TD-6450 was 0.5 mg with a planned maximum dose of 1000 mg. Upon review of the 500-mg cohort PK data, the decision was made to not escalate to the 1000-mg cohort because of exposure saturation at ≥ 500 mg. The following doses were administered: 0.5 mg, 1.5 mg, 5 mg, 15 mg, 30 mg, 60 mg, 120 mg, 240 mg, and 500 mg. Part B: Healthy subjects were sequentially enrolled in 3 ascending dose cohorts (TD-6450 60 mg, 120 mg, and 240 mg) and randomly assigned to receive either TD-6450 or placebo as once daily doses for 14 days. For each dose cohort, 10 subjects were randomized in a 4:1 ratio (8 subjects received TD-6450 and 2 subjects received placebo). Blinded safety, tolerability, and available PK data after each dose cohort were reviewed by the Safety Data Review Committee (SDRC) before escalation to the next dosing cohort for both part A and B. Subjects of the clinical study were randomly assigned to each cohort. Randomizations codes were assigned to the subjects. All study subjects, study investigators, and the sponsor’s staff involved in the conduct of the study were blinded to treatment assignment. The only personnel who had access to the randomization code before database lock were: The pharmacist or pharmacy staff member who prepared drug or placebo capsules for administration to the subject according to the randomization code and the bioanalytical contract laboratory that analyzed the PK samples (plasma and urine).

CNC(=O)N1C[C@@H](C)N(c2ccc(C(=O)Nc3ccc(-c4ccc(-c5c[nH]c([C@@H]6CCCN6C(=O)[C@@H](NC(=O)OC)C(C)C)n5)cc4)c(OC(F)(F)F)c3)cn2)C[C@@H]1C [TD-6450]
TD-6450 concentration (in vivo, 120 h): 29.30 ng/mL | concentration at 15 min (in vivo, TD-6450 concentration): 0 ng/mL | concentration at 2 h (in vivo, TD-6450 concentration): 116 ng/mL | concentration at 3 h (in vivo, TD-6450 concentration): 156 ng/mL | concentration at 4 h (in vivo, TD-6450 concentration): 159 ng/mL | concentration at 6 h (in vivo, TD-6450 concentration): 165 ng/mL | concentration at 12 h (in vivo, TD-6450 concentration): 108 ng/mL | concentration at 24 h (in vivo, TD-6450 concentration): 85.6 ng/mL | concentration at 48 h (in vivo, TD-6450 concentration): 60 ng/mL | concentration at 72 h (in vivo, TD-6450 concentration): 42.6 ng/mL | concentration at 96 h (in vivo, TD-6450 concentration): 27.1 ng/mL | concentration at 120 h (in vivo, TD-6450 concentration): 19.3 ng/mL | concentration at 144 h (in vivo, TD-6450 concentration): 15.1 ng/mL | concentration at 168 h (in vivo, TD-6450 concentration): 12.2 ng/mL | concentration at 312 h (in vivo, TD-6450 concentration): 2.12 ng/mL | concentration at 1 h (plasma, oral, 0.5 mg, Male subjects, SAD arm NCT02022306, Dose 0.50, 1 Hour, read-out: Concentration): 0 ng/mL | concentration at 2 h (plasma, oral, 0.5 mg, Male subjects, SAD arm NCT02022306, Dose 0.50, 2 Hours, read-out: Concentration): 0 ng/mL | concentration at 3 h (plasma, oral, 0.5 mg, Male subjects, SAD arm NCT02022306, Dose 0.50, 3 Hours, read-out: Concentration): 0 ng/mL | concentration at 15 min (plasma, oral, 0.5 mg, Male subjects, SAD arm NCT02022306, Dose 0.50, 15 Minutes, read-out: Concentration): 0 ng/mL | concentration at 24 h (plasma, oral, 0.5 mg, Male subjects, SAD arm NCT02022306, Dose 0.50, 24 Hours, read-out: Concentration): 0 ng/mL | concentration at 30 min (plasma, oral, 0.5 mg, Male subjects, SAD arm NCT02022306, Dose 0.50, 30 Minutes, read-out: Concentration): 0 ng/mL | concentration at 72 h (plasma, oral, 0.5 mg, Male subjects, SAD arm NCT02022306, Dose 0.50, 72 Hours, read-out: Concentration): 0 ng/mL | concentration at 96 h (plasma, oral, 0.5 mg, Male subjects, SAD arm NCT02022306, Dose 0.50, 96 Hours, read-out: Concentration): 0 ng/mL | concentration at 120 h (plasma, oral, 0.5 mg, Male subjects, SAD arm NCT02022306, Dose 0.50, 120 Hours, read-out: Concentration): 0 ng/mL | concentration at 144 h (plasma, oral, 0.5 mg, Male subjects, SAD arm NCT02022306, Dose 0.50, 144 Hours, read-out: Concentration): 0 ng/mL | concentration at 168 h (plasma, oral, 0.5 mg, Male subjects, SAD arm NCT02022306, Dose 0.50, 168 Hours, read-out: Concentration): 0 ng/mL | concentration at 15 min (plasma, oral, 1.5 mg, Male subjects, SAD arm NCT02022306, Dose 1.50, 15 Minutes, read-out: Concentration): 0 ng/mL | concentration at 30 min (plasma, oral, 1.5 mg, Male subjects, SAD arm NCT02022306, Dose 1.50, 30 Minutes, read-out: Concentration): 0 ng/mL | concentration at 15 min (plasma, oral, 5 mg, Male subjects, SAD arm NCT02022306, Dose 5.00, 15 Minutes, read-out: Concentration): 0 ng/mL | concentration at 15 min (plasma, oral, 15 mg, Male subjects, SAD arm NCT02022306, Dose 15.00, 15 Minutes, read-out: Concentration): 0 ng/mL | concentration at 1 h (plasma, oral, 30 mg, Male subjects, SAD arm NCT02022306, Dose 30.00, 1 Hour, read-out: Concentration (ng/ml)): 0.68 ng/mL | concentration at 2 h (plasma, oral, 30 mg, Male subjects, SAD arm NCT02022306, Dose 30.00, 2 Hours, read-out: Concentration): 9.36 ng/mL | concentration at 3 h (plasma, oral, 30 mg, Male subjects, SAD arm NCT02022306, Dose 30.00, 3 Hours, read-out: Concentration): 15.6 ng/mL | concentration at 3 h (plasma, oral, 30 mg, Male subjects, SAD arm NCT02022306, Dose 30.00, 3 Hours, read-out: Concentration (ng/ml)): 20.9 ng/mL | concentration at 4 h (plasma, oral, 30 mg, Male subjects, SAD arm NCT02022306, Dose 30.00, 4 Hours, read-out: Concentration): 18.8 ng/mL | concentration at 4 h (plasma, oral, 30 mg, Male subjects, SAD arm NCT02022306, Dose 30.00, 4 Hours, read-out: Concentration (ng/ml)): 17.9 ng/mL | concentration at 6 h (plasma, oral, 30 mg, Male subjects, SAD arm NCT02022306, Dose 30.00, 6 Hours, read-out: Concentration): 22.6 ng/mL | concentration at 8 h (plasma, oral, 30 mg, Male subjects, SAD arm NCT02022306, Dose 30.00, 8 Hours, read-out: Concentration): 26.3 ng/mL | concentration at 12 h (plasma, oral, 30 mg, Male subjects, SAD arm NCT02022306, Dose 30.00, 12 Hours, read-out: Concentration): 18.7 ng/mL | concentration at 15 min (plasma, oral, 30 mg, Male subjects, SAD arm NCT02022306, Dose 30.00, 15 Minutes, read-out: Concentration): 0 ng/mL | concentration at 15 min (plasma, oral, 30 mg, Male subjects, SAD arm NCT02022306, Dose 30.00, 15 Minutes, read-out: Concentration (ng/ml)): 0 ng/mL | concentration at 24 h (plasma, oral, 30 mg, Male subjects, SAD arm NCT02022306, Dose 30.00, 24 Hours, read-out: Concentration): 14.3 ng/mL | concentration at 30 min (plasma, oral, 30 mg, Male subjects, SAD arm NCT02022306, Dose 30.00, 30 Minutes, read-out: Concentration (ng/ml)): 0 ng/mL | concentration at 48 h (plasma, oral, 30 mg, Male subjects, SAD arm NCT02022306, Dose 30.00, 48 Hours, read-out: Concentration): 9.12 ng/mL | concentration at 72 h (plasma, oral, 30 mg, Male subjects, SAD arm NCT02022306, Dose 30.00, 72 Hours, read-out: Concentration): 6.82 ng/mL | concentration at 72 h (plasma, oral, 30 mg, Male subjects, SAD arm NCT02022306, Dose 30.00, 72 Hours, read-out: Concentration (ng/ml)): 5.73 ng/mL | concentration at 96 h (plasma, oral, 30 mg, Male subjects, SAD arm NCT02022306, Dose 30.00, 96 Hours, read-out: Concentration): 5.25 ng/mL | concentration at 96 h (plasma, oral, 30 mg, Male subjects, SAD arm NCT02022306, Dose 30.00, 96 Hours, read-out: Concentration (ng/ml)): 4.83 ng/mL | concentration at 120 h (plasma, oral, 30 mg, Male subjects, SAD arm NCT02022306, Dose 30.00, 120 Hours, read-out: Concentration): 4.26 ng/mL | concentration at 120 h (plasma, oral, 30 mg, Male subjects, SAD arm NCT02022306, Dose 30.00, 120 Hours, read-out: Concentration (ng/ml)): 3.52 ng/mL | concentration at 144 h (plasma, oral, 30 mg, Male subjects, SAD arm NCT02022306, Dose 30.00, 144 Hours, read-out: Concentration): 3.26 ng/mL | concentration at 144 h (plasma, oral, 30 mg, Male subjects, SAD arm NCT02022306, Dose 30.00, 144 Hours, read-out: Concentration (ng/ml)): 3.18 ng/mL | concentration at 168 h (plasma, oral, 30 mg, Male subjects, SAD arm NCT02022306, Dose 30.00, 168 Hours, read-out: Concentration): 2.33 ng/mL | concentration at 168 h (plasma, oral, 30 mg, Male subjects, SAD arm NCT02022306, Dose 30.00, 168 Hours, read-out: Concentration (ng/ml)): 2.29 ng/mL | concentration at 8 h (plasma, oral, 60 mg, Male subjects, SAD arm NCT02022306, Dose 60.00, 8 Hours, read-out: Concentration (ng/ml)): 110 ng/mL | concentration at 15 min (plasma, oral, 60 mg, Male subjects, SAD arm NCT02022306, Dose 60.00, 15 Minutes, read-out: Concentration (ng/ml)): 0 ng/mL | concentration at 15 min (plasma, oral, 120 mg, Male subjects, SAD arm NCT02022306, Dose 120.00, 15 Minutes, read-out: Concentration (ng/ml)): 0 ng/mL | concentration at 15 min (plasma, oral, 240 mg, Male subjects, SAD arm NCT02022306, Dose 240.00, 15 Minutes, read-out: Concentration (ng/ml)): 0 ng/mL | concentration at 15 min (plasma, oral, 500 mg, Male subjects, SAD arm NCT02022306, Dose 500.00, 15 Minutes, read-out: Concentration (ng/ml)): 0 ng/mL | concentration at 30 min (plasma, oral, 500 mg, Male subjects, SAD arm NCT02022306, Dose 500.00, 30 Minutes, read-out: Concentration (ng/ml)): 2.85 ng/mL
